From PubChem BioAssay AID2060882 (Molecular Pharmacology Branch, DTP, NCI, 2025)
Several values for one entry are separate records, joined by “and”; a condition that tells them apart may be missing. Equal values may be shown once.

System: 898857-211-R-J1-PDC complex spheroids, growth % test/control
Test: Anticancer human tumor 898857-211-R-J1-PDC patient-derived melanoma cell line growth inhibition [RAS]
Conditions: for viability, T/C: stronger effect = lower value
Excerpt: RAS pathway inhibitors in Combinations in Complex Spheroids
A high-throughput screen of multi-cell type tumor spheroids was designed to identify active combinations of RAS pathway inhibitors and targeted small molecules. Complex spheroids include a stromal component modeled by human endothelial cells (HUVEC) and fibroblasts modeled by human mesenchymal stem cells (MSCs). The concentration ranges selected for each drug and investigational agent were based upon clinically achievable concentrations if the clinical Cmax of the agent was known.
Compounds. The drugs and investigational agents: abemaciclib (NSC768073), cobimetinib (NSC768068), divarasib (GDC6063, NSC841802), docetaxel (NSC628503), GDC-1971 (RLY-1971, NSC841576), gemcitabine (NSC613327), inavolisib (NSC800729), ipatasertib (NSC767898), KB-0742 (NSC834161), MRTX-1133 (NSC836407), osimertinib (NSC779217), RMC-4630 (NSC839698), RMC-6236 (NSC851965), RMC-6291 (NSC852671), Ro-3306 (NSC812927), sapanisertib (NSC764658), SN-38 (NSC673596), staurosporine (NSC755774), SY5609 (NSC837396), and tovorafenib (DAY101, NSC766906), were obtained from the National Cancer Institute (NCI) Developmental Therapeutics Program Chemical Repository. The FDA-approved anticancer drug set is available from the NCI Developmental Therapeutics Program. […] The stock solutions were prepared in dimethyl sulfoxide (DMSO, Sigma-Aldrich, St. Louis, MO, cat. D2650) at 800-fold the tested concentration and stored at -70 degrees C prior to their use. All drugs and investigational agents were tested over a range starting from a high concentration at or near the clinical Cmax and decreasing in half-log increments. If the clinical Cmax for an agent had not been determined, the highest concentration tested was 10 microM.
Cell Culture. All cells were maintained in an incubator at 37 degrees C and 5% CO2 with 95% humidity. The PDC lines were cultured according to standard operating procedures established by the NCI PDMR. All PDCs were thawed and cultured in Matrigel-coated flasks prepared with a working solution of 1X Ham's F-12 nutrient mix, without supplementation (Invitrogen, Waltham, MA, cat. 11765054), 100 U/mL penicillin-streptomycin (Invitrogen, cat. 15140122), and 2.5% Matrigel (Corning Inc., Corning, NY, cat. 354248) for the first three passages. The 362531-283-R-J2-PDC and 782815-120-R-J1-PDC lines were cultured in 6C/Colon 1B media, which includes advanced DMEM/F-12 (Thermo Fisher Scientific, cat. 12634028), 10 mM HEPES (Thermo Fisher Scientific, cat. 15630080), 1X GlutaMAX supplement (Thermo Fisher Scientific, cat. 35050061), 0.1 mg/mL primocin (InvivoGen, San Diego, CA, cat. ant-pm-2), 10% defined fetal bovine serum, heat inactivated (HyClone Laboratories Inc., Logan, UT, cat. SH30070.03HI), 50% L-WRN conditioned media (ATCC, cat. CRL-3276), 1.25 mM N-Acetyl-L-cysteine (Sigma-Aldrich, cat. A9165), 10 mM nicotinamide (Sigma-Aldrich, cat. N0636), 1X B-27 supplement (Thermo Fisher Scientific, cat. 17504044), 1X N-2 supplement (Thermo Fisher Scientific, cat. 17502048), 50 ng/mL human EGF (Thermo Fisher Scientific, cat. PHG0311), and 10 microM Y-27632 dihydrochloride (Tocris Bioscience, cat. 1254). The K12877-001-R-J1-PDC line was cultured in 6I media, which includes all 6C/Colon 1B media plus 10 ng/mL human FGF-10 (PeproTech, cat. 100-26), 1 ng/mL human FGF-2 (PeproTech, cat. 100-18B), 1 µM prostaglandin E2 (Tocris Bioscience, cat. 2296), […] hydrocortisone (Sigma-Aldrich, cat. H4001), and […] bovine insulin (Sigma-Aldrich, cat. I6634). The K86415-001-R-J1-PDC line was cultured in 6D media, which includes all 6C/Colon 1B media components minus the L-WRN conditioned media. The 485176-168-R4-J1-PDC was cultured in PANC media, which includes all 6C/Colon 1B media plus 100 ng/mL human FGF-10 (PeproTech, cat. 100-26), 500 nM SB-431542 (Selleckchem, cat. S1067), and 10 nM gastrin (Tocris Bioscience, cat. 3006). […]

[1] = curve of first compound, second compound 0.0316 µM
[2] = curve of first compound, second compound 0.1 µM
[3] = curve of first compound, second compound 0.316 µM
[4] = curve of first compound, second compound 1 µM
[5] = second compound 0.0316 µM, first compound 0.00316 µM
[6] = second compound 0.0316 µM, first compound 0.01 µM
[7] = second compound 0.0316 µM, first compound 0.0316 µM
[8] = second compound 0.0316 µM, first compound 0.1 µM
[9] = second compound 0.1 µM, first compound 0.00316 µM
[10] = second compound 0.1 µM, first compound 0.01 µM
[11] = second compound 0.1 µM, first compound 0.0316 µM
[12] = second compound 0.1 µM, first compound 0.1 µM
[13] = second compound 0.316 µM, first compound 0.00316 µM
[14] = second compound 0.316 µM, first compound 0.01 µM
[15] = second compound 0.316 µM, first compound 0.0316 µM
[16] = second compound 0.316 µM, first compound 0.1 µM
[17] = second compound 1 µM, first compound 0.00316 µM
[18] = second compound 1 µM, first compound 0.01 µM
[19] = second compound 1 µM, first compound 0.0316 µM
[20] = second compound 1 µM, first compound 0.1 µM
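Also: spheroids exposed to compound for seven days before readout.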
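For viability, T/C in this document: 100% = DMSO vehicle control wells.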

## CC(C)n1nc(-c2ccc3oc(N)nc3c2)c2c(N)ncnc21 + C#Cc1c(F)ccc2cc(O)cc(-c3ncc4c(N5CC6CCC(C5)N6)nc(OCC56CCCN5CC(F)C6)nc4c3F)c12
[1]
  IC50: 32.6 nM
[2]
  IC50: 38.2 nM
[3]
  IC50: 37.7 nM
[4]
  IC50: 37.3 nM
Curve of first compound, second compound 3.16 µM
  IC50: 39.6 nM
Curve of first compound, second compound 10 µM
  IC50: 1.06 nM
Second compound 0.0316 µM, first compound 0.000316 µM
  viability, T/C: 108%
Second compound 0.0316 µM, first compound 0.001 µM
  viability, T/C: 92.3%
[5]
  viability, T/C: 101%
[6]
  viability, T/C: 81.8%
[7]
  viability, T/C: 50.9%
[8]
  viability, T/C: 24%
Second compound 0.1 µM, first compound 0.000316 µM
  viability, T/C: 115%
Second compound 0.1 µM, first compound 0.001 µM
  viability, T/C: 99.8%
[9]
  viability, T/C: 100%
[10]
  viability, T/C: 79.5%
[11]
  viability, T/C: 54.4%
[12]
  viability, T/C: 24.5%
Second compound 0.316 µM, first compound 0.000316 µM
  viability, T/C: 112%
Second compound 0.316 µM, first compound 0.001 µM
  viability, T/C: 113%
[13]
  viability, T/C: 99.2%
[14]
  viability, T/C: 78.9%
[15]
  viability, T/C: 55.6%
[16]
  viability, T/C: 26.6%
Second compound 1 µM, first compound 0.000316 µM
  viability, T/C: 110%
Second compound 1 µM, first compound 0.001 µM
  viability, T/C: 103%
[17]
  viability, T/C: 107%
[18]
  viability, T/C: 81.4%
[19]
  viability, T/C: 55.8%
[20]
  viability, T/C: 23.5%
Second compound 3.16 µM, first compound 0.000316 µM
  viability, T/C: 122%
Second compound 3.16 µM, first compound 0.001 µM
  viability, T/C: 114%
Second compound 3.16 µM, first compound 0.00316 µM
  viability, T/C: 102%
Second compound 3.16 µM, first compound 0.01 µM
  viability, T/C: 84.4%
Second compound 3.16 µM, first compound 0.0316 µM
  viability, T/C: 55.8%
Second compound 3.16 µM, first compound 0.1 µM
  viability, T/C: 23.8%
Second compound 10 µM, first compound 0.000316 µM
  viability, T/C: 57.5%
Second compound 10 µM, first compound 0.001 µM
  viability, T/C: 47.7%
Second compound 10 µM, first compound 0.00316 µM
  viability, T/C: 46.7%
Second compound 10 µM, first compound 0.01 µM
  viability, T/C: 29.9%
Second compound 10 µM, first compound 0.0316 µM
  viability, T/C: 24.4%
Second compound 10 µM, first compound 0.1 µM
  viability, T/C: 10.4%

## CCN1CCN(Cc2ccc(Nc3ncc(F)c(-c4cc(F)c5nc(C)n(C(C)C)c5c4)n3)nc2)CC1 + C=CC(=O)N1CCN(c2nc(OCC3CCCN3C)nc3c(F)c(-c4nc(N)cc(C)c4C(F)(F)F)c(Cl)cc23)C(C)C1
Curve of first compound, second compound 0.00316 µM
  IC50: 366 nM
Curve of first compound, second compound 0.01 µM
  IC50: 313 nM
[1]
  IC50: 377 nM
[2]
  IC50: 490 nM
[3]
  IC50: > 1000 nM
[4]
  IC50: 309 nM
Second compound 0.00316 µM, first compound 0.00316 µM
  viability, T/C: 106%
Second compound 0.00316 µM, first compound 0.01 µM
  viability, T/C: 106%
Second compound 0.00316 µM, first compound 0.0316 µM
  viability, T/C: 95.4%
Second compound 0.00316 µM, first compound 0.1 µM
  viability, T/C: 72.2%
Second compound 0.00316 µM, first compound 0.316 µM
  viability, T/C: 52.4%
Second compound 0.00316 µM, first compound 1 µM
  viability, T/C: 41.2%
Second compound 0.01 µM, first compound 0.00316 µM
  viability, T/C: 101%
Second compound 0.01 µM, first compound 0.01 µM
  viability, T/C: 106%
Second compound 0.01 µM, first compound 0.0316 µM
  viability, T/C: 86.6%
Second compound 0.01 µM, first compound 0.1 µM
  viability, T/C: 80.2%
Second compound 0.01 µM, first compound 0.316 µM
  viability, T/C: 45.7%
Second compound 0.01 µM, first compound 1 µM
  viability, T/C: 40.2%
[5]
  viability, T/C: 121%
[6]
  viability, T/C: 102%
[7]
  viability, T/C: 83.4%
[8]
  viability, T/C: 77%
Second compound 0.0316 µM, first compound 0.316 µM
  viability, T/C: 45.6%
Second compound 0.0316 µM, first compound 1 µM
  viability, T/C: 39.2%
[9]
  viability, T/C: 118%
[10]
  viability, T/C: 96.4%
[11]
  viability, T/C: 98.2%
[12]
  viability, T/C: 79.2%
Second compound 0.1 µM, first compound 0.316 µM
  viability, T/C: 56.4%
Second compound 0.1 µM, first compound 1 µM
  viability, T/C: 36.3%
[13]
  viability, T/C: 112%
[14]
  viability, T/C: 117%
[15]
  viability, T/C: 91.8%
[16]
  viability, T/C: 64.8%
Second compound 0.316 µM, first compound 0.316 µM
  viability, T/C: 59%
Second compound 0.316 µM, first compound 1 µM
  viability, T/C: 50.9%
[17]
  viability, T/C: 122%
[18]
  viability, T/C: 114%
[19]
  viability, T/C: 102%
[20]
  viability, T/C: 67.4%
Second compound 1 µM, first compound 0.316 µM
  viability, T/C: 53.8%
Second compound 1 µM, first compound 1 µM
  viability, T/C: 38%

## CC1(C)CCC(Nc2ncc(C(F)(F)F)c(-c3c[nH]c4c(P(C)(C)=O)c(C#N)ccc34)n2)CN1 (stereo unspecified)
Compound 0.000949 µM
  viability, T/C: 92.3% and 96.9% and 98.6%
Compound 0.003 µM
  viability, T/C: 59.9% and 52.9% and 65.2%
Compound 0.00949 µM
  viability, T/C: 31.4% and 26.4% and 32.5%
Compound 0.03 µM
  viability, T/C: 20.2% and 16.2% and 24.3%
Compound 0.0949 µM
  viability, T/C: 17.3% and 16.8% and 20.4%
Compound 0.3 µM
  viability, T/C: 18.4% and 16.5% and 20%
Curve of compound
  IC50: 4.47 nM and 3.41 nM and 5.16 nM
